Laboratory results published in ChEMBL document CHEMBL3085750, “Discovery of 2-methylpyridine-based biaryl amides as γ-secretase modulators for the treatment of Alzheimer's disease” (Bioorg Med Chem Lett, 2013).

Tests used:
Gamma-secretase = experiment: Modulation of gamma-secretase in HEK293 cells expressing guinea pig Swedish mutant SFV-APP695sw assessed as inhibition of amyloid beta-42 production after 16 to 18 hrs by HTRF assay; format: cell-based, Homo sapiens
Cytochrome P450 3A4 = Cytochrome P450 3A4 (Homo sapiens, UniProt P08684); experiment: Inhibition of CYP3A4 (unknown origin) after 5 mins; format: ADME
[1] = Metabolic stability in rat liver microsomes at 1 uM after 30 mins; format: ADME; conditions: read-out: Stability
[2] = Metabolic stability in human liver microsomes at 1 uM after 30 mins; format: ADME; conditions: read-out: Stability
Cytochrome P450 2D6 = Cytochrome P450 2D6 (Homo sapiens, UniProt P10635); experiment: Inhibition of CYP2D6 (unknown origin) after 10 mins; format: ADME
[3] = Ratio of drug level in brain to plasma in mouse at 10 mg/kg, po after 2 hrs; format: ADME, organism-based; parameters: dose 10 mg/kg, route oral; conditions: read-out: BPR

Sequence of Cytochrome P450 2D6 (P10635 whole entry): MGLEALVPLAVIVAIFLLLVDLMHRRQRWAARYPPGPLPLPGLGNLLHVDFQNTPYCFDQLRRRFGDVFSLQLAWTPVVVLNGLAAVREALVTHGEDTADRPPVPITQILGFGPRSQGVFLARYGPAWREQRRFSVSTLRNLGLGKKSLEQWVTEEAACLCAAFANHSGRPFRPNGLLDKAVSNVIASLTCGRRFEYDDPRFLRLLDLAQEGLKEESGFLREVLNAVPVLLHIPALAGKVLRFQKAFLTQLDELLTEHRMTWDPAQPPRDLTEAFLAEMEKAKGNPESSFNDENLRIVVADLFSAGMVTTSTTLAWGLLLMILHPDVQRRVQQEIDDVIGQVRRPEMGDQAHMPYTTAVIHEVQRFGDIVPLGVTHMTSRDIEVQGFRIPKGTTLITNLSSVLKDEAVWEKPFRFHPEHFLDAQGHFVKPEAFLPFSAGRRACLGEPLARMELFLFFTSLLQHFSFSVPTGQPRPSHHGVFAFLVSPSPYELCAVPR
Sequence of Cytochrome P450 3A4 (P08684 whole entry): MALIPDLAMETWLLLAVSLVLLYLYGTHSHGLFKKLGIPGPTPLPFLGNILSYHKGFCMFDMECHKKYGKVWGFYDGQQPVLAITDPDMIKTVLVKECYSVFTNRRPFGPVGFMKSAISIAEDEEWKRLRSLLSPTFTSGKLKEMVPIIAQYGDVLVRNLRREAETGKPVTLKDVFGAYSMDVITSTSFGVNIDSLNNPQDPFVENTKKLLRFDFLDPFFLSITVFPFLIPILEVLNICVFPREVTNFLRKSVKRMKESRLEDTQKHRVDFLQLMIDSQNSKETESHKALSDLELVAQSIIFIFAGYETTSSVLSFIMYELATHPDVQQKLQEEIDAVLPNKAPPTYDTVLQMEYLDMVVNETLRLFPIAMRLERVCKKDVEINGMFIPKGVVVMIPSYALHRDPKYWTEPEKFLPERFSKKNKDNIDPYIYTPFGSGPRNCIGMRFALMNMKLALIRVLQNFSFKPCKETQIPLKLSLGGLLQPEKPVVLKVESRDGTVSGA

| SMILES | IC50 (Gamma-secretase) [µM] | IC50 (Cytochrome P450 3A4) [µM] | microsomal CLint at 1 µM [1] [µL/min/mg] | microsomal CLint at 1 µM [2] [µL/min/mg] | IC50 (Cytochrome P450 2D6) [µM] | Kp at 2 h [3] |
| --- | --- | --- | --- | --- | --- | --- |
| Cc1cc(-c2ccc(NC(=O)C(C)(C)c3cc(C(F)(F)F)cc(C(F)(F)F)c3)cc2)ccn1 | > 10 | – | – | – | – | – |
| C=Cc1cc(-c2ccc(NS(=O)(=O)c3cc(C(F)(F)F)cc(C(F)(F)F)c3)cc2)ccn1 | 1.26 | 4.5 | 169 | 193 | 0.7 | – |
| O=S(=O)(Nc1ccc(-c2nnco2)cc1)c1cc(Cl)cc(Cl)c1 | 2.44 | 27 | 287 | 94 | 15.1 | 0.16 |
| O=S(=O)(Nc1ccc(-c2cncnc2)cc1)c1cc(Cl)cc(Cl)c1 | > 10 | 3.5 | > 399 | 45 | 7.2 | – |
| Cc1cc(-c2ccc(NC(=O)Cc3cc(C(F)(F)F)cc(C(F)(F)F)c3)cc2)ccn1 | 0.46 | > 27 | 22 | 18 | 13 | – |
| O=S(=O)(Nc1ccc(-n2ccnc2)cc1)c1cc(Cl)cc(Cl)c1 | 2.1 | 0.1 | < 14 | < 14 | 0.1 | 0.07 |
| Cc1cc(-c2ccc(NS(=O)(=O)c3cc(C(F)(F)F)cc(C(F)(F)F)c3)cc2)ccn1 | 0.28 | > 27 | 290 | 399 | 2 | – |
| O=S(=O)(Nc1ccc(-c2cnco2)cc1)c1cc(Cl)cc(Cl)c1 | 1.54 | 1.6 | 166 | 32 | 2.9 | 0.03 |
| O=S(=O)(Nc1ccc(-c2cc[nH]n2)cc1)c1cc(Cl)cc(Cl)c1 | > 10 | 15.3 | > 399 | 384 | 11.8 | – |
| Cc1noc(-c2ccc(NS(=O)(=O)c3cc(Cl)cc(Cl)c3)cc2)n1 | > 10 | > 27 | > 399 | > 399 | > 27 | – |
| CCCc1cc(-c2ccc(NS(=O)(=O)c3cc(C(F)(F)F)cc(C(F)(F)F)c3)cc2)ccn1 | 4.06 | > 27 | 122 | 270 | 1.8 | – |
| COc1cc(NS(=O)(=O)c2ccc(Cl)c(Cl)c2)ccc1-n1cnc(C)c1 | 0.9 | – | – | – | – | – |
| COc1cc(NS(=O)(=O)c2cc(Cl)cc(Cl)c2)ccc1-n1cnc(C)c1 | 1.06 | – | – | – | – | – |
| COc1cc(NC(=O)[C@H](C)c2cc(C(F)(F)F)cc(C(F)(F)F)c2)ccc1-c1ccnc(C)c1 | 0.5 | – | – | – | – | – |
| CCc1cc(-c2ccc(NS(=O)(=O)c3cc(C(F)(F)F)cc(C(F)(F)F)c3)cc2)ccn1 | 0.21 | 12.2 | 324 | 371 | 0.7 | – |
| Cc1cc(-c2ccc(C(=O)NC(C)c3cc(C(F)(F)F)cc(C(F)(F)F)c3)cc2)ccn1 (stereo not drawn) | > 10 | – | – | – | – | – |

The next lines start with the values.

| IC50 (Gamma-secretase) [µM] | IC50 (Cytochrome P450 3A4) [µM] | microsomal CLint at 1 µM [1] [µL/min/mg] | microsomal CLint at 1 µM [2] [µL/min/mg] | IC50 (Cytochrome P450 2D6) [µM] | Kp at 2 h [3] | SMILES |
| --- | --- | --- | --- | --- | --- | --- |
| 1.38 | – | – | – | – | – | Cc1cccc(C(CC(C)C)C(=O)Nc2ccc(-c3ccnc(C)c3)cc2)c1 (single isomer, unassigned; isomer 2) |
| 0.49 | – | – | – | – | – | CCCCC(C(=O)Nc1ccc(-c2ccnc(C)c2)cc1)c1cccc(C)c1 (stereo not drawn) |
| 0.26 | – | – | – | – | – | Cc1cc(-c2ccc(NC(=O)C(C)c3cccc(-c4ccc(C(=O)N(C)C)cc4)c3)cc2)ccn1 (stereo not drawn) |
| 1.53 | – | – | – | – | – | Cc1cc(-c2ccc(/C=C3\CCCN([C@@H](C)c4ccc(F)cc4)C3=O)cc2)ccn1 |
| > 10 | – | – | – | – | – | Cc1cc(-c2ccc(NC(=O)C(C)c3cccc(N4CCN(C)CC4)c3)cc2)ccn1 (stereo not drawn) |
| 0.12 | – | – | – | – | – | Cc1cc(-c2ccc(NC(=O)C(C)c3cccc(-c4ccc(N(C)C)cc4)c3)cc2)ccn1 (stereo not drawn) |
| 6 | – | – | – | – | – | Cc1cc(-c2ccc(NC(=O)C(C)c3ccccc3)cc2)ccn1 (stereo not drawn) |
| 0.14 | – | – | – | – | – | CC(=O)c1ccc(-c2cccc(C(C)C(=O)Nc3ccc(-c4ccnc(C)c4)cc3)c2)cc1 (stereo not drawn) |
| 0.66 | – | – | – | – | – | Cc1cc(-c2ccc(NC(=O)C(C)c3cccc(-c4ccccc4)c3)cc2)ccn1 (stereo not drawn) |
| 2.12 | – | – | – | – | – | Cc1cc(-c2ccc(C(=O)NCCc3ccc(Cl)cc3)cc2)ccn1 |
| 0.031 | – | – | – | – | – | Cc1cc(-c2ccc(NC(=O)[C@H](C)c3cccc(-c4ccc(N5CCOCC5)cc4)c3)cc2)ccn1 |
| 0.17 | – | – | – | – | – | Cc1cc(-c2ccc(NC(=O)C(C)c3cccc(-c4ccc(N(C)C)nc4)c3)cc2)ccn1 (stereo not drawn) |
| > 10 | – | – | – | – | – | Cc1cccc(C(CCCO)C(=O)Nc2ccc(-c3ccnc(C)c3)cc2)c1 (stereo not drawn) |
| 0.18 | – | – | – | – | – | Cc1cccc(C(CC(C)C)C(=O)Nc2ccc(-c3ccnc(C)c3)cc2)c1 (single isomer, unassigned; isomer 1) |
| > 10 | – | – | – | – | – | Cc1cc(-c2ccc(NC(=O)C(C)c3cccc(-c4ccccn4)c3)cc2)ccn1 (stereo not drawn) |
| 0.07 | – | – | – | – | – | Cc1cc(-c2ccc(NC(=O)[C@@H](C)c3cccc(-c4ccc(N5CCOCC5)cc4)c3)cc2)ccn1 |
| > 10 | – | – | – | – | – | Cc1cc(-c2ccc(NC(=O)C(C)c3cccc(-c4ccc(C(=O)O)cc4)c3)cc2)ccn1 (stereo not drawn) |
| 0.54 | – | – | – | – | – | CCCC(C(=O)Nc1ccc(-c2ccnc(C)c2)cc1)c1cccc(C)c1 (stereo not drawn) |
| 0.15 | – | – | – | – | – | Cc1cc(-c2ccc(NC(=O)C(C)c3cccc(-c4ccc(N5CCOCC5)nc4)c3)cc2)ccn1 (stereo not drawn) |
| 1.11 | – | – | – | – | – | Cc1cc(-c2ccc(NC(=O)Nc3cc(C(F)(F)F)cc(C(F)(F)F)c3)cc2)ccn1 |
